Test results from ChEMBL document CHEMBL1909046, “DrugMatrix in vitro pharmacology data”.

Legend:
[1] = molecular target: T1, Type-2 angiotensin II receptor (Homo sapiens, UniProt P50052); assay type: cell-based; conditions: cho-k1; note: in other assays of this panel Not Active means under 50% inhibition at 10 µM
T1 sequence (P50052 whole entry): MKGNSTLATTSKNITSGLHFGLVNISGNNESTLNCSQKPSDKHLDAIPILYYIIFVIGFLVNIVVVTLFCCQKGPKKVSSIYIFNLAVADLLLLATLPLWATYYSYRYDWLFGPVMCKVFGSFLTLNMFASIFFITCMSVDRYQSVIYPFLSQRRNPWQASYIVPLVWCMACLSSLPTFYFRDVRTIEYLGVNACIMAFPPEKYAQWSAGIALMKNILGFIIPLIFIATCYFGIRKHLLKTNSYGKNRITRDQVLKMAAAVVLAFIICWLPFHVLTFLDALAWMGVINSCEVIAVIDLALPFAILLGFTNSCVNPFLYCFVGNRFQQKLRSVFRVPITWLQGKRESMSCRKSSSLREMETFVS

[2] = molecular target: Beta-3 adrenergic receptor (Homo sapiens, UniProt P13945); assay: DRUGMATRIX: Adrenergic beta3 radioligand binding (ligand: [125I] Cyanopindolol); assay type: cell membranes, HEK293, Membrane; conditions: hek293; Not Active = under 50% inhibition at 10 µM
[3] = DRUGMATRIX: GABAA, Flunitrazepam, Central radioligand binding (ligand: [3H] Flunitrazepam); assay type: cell membranes, Rattus norvegicus, Wistar, Brain, Membrane; conditions: Not Active = under 50% inhibition at 10 µM
[4] = DRUGMATRIX: Phosphodiesterase PDE3 enzyme inhibition (substrate: [3H]cAMP + cAMP); assay type: tissue-based, Homo sapiens; conditions: platelet; Not Active = under 50% inhibition at 10 µM
[5] = molecular target: T2, Receptor-type tyrosine-protein phosphatase C (Homo sapiens, UniProt P08575); set-up: species or system Escherichia coli;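 note: inhibition of CD45 enzyme activity measured using DiFMUP as substrate; in other assays of this panel Not Active means under 50% inhibition at 10 µM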
T2 sequence (P08575 whole entry): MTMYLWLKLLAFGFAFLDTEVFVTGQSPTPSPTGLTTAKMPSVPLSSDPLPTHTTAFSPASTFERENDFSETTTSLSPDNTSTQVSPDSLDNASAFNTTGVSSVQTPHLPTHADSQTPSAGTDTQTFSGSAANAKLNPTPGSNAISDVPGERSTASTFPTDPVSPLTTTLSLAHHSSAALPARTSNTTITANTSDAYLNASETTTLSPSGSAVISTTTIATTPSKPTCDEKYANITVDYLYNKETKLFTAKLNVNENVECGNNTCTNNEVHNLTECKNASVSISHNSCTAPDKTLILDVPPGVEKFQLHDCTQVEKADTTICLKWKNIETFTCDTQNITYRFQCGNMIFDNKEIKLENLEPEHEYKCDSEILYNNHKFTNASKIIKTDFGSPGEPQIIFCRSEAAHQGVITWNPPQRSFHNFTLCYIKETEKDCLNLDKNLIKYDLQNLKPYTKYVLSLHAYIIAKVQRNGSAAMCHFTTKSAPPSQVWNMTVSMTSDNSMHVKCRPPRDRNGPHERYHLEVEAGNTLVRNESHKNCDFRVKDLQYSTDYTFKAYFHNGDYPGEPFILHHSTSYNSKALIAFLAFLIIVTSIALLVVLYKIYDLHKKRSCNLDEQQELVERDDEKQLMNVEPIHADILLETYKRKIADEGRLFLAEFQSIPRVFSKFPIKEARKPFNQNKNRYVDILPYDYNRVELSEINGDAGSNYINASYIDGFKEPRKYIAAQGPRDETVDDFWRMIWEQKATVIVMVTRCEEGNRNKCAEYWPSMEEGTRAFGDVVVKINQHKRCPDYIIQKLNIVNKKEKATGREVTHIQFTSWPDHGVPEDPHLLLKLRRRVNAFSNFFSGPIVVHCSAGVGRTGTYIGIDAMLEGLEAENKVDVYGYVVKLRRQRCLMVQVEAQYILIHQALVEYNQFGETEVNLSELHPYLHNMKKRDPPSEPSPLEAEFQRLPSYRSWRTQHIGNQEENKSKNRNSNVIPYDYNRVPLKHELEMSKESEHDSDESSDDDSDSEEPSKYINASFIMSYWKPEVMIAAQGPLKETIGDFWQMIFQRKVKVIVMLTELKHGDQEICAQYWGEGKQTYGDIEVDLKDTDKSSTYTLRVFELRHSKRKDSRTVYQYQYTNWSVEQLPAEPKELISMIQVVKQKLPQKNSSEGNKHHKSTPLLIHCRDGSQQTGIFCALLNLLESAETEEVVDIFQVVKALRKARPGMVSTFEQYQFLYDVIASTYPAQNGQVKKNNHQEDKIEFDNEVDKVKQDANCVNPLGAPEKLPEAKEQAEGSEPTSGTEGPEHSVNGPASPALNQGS

[6] = molecular target: T3, Alpha-2A adrenergic receptor (Homo sapiens, UniProt P08913); assay type: cell membranes, Sf9, Membrane; conditions: sf9; note: in other assays of this panel Not Active means under 50% inhibition at 10 µM
T3 sequence (P08913 whole entry): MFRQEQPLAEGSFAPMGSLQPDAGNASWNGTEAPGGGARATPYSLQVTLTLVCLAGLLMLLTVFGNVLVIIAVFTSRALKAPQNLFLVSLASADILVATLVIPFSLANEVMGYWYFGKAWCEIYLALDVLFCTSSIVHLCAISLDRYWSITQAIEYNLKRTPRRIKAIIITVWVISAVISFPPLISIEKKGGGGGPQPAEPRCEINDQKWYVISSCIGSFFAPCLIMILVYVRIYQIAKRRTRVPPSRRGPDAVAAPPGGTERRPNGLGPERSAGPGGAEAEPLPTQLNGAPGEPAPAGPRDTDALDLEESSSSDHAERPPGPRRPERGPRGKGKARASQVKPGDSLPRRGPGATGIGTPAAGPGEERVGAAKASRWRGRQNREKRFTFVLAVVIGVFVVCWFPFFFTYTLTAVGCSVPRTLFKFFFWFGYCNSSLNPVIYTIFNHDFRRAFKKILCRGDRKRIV

Chain of Beta-3 adrenergic receptor (P13945 whole entry): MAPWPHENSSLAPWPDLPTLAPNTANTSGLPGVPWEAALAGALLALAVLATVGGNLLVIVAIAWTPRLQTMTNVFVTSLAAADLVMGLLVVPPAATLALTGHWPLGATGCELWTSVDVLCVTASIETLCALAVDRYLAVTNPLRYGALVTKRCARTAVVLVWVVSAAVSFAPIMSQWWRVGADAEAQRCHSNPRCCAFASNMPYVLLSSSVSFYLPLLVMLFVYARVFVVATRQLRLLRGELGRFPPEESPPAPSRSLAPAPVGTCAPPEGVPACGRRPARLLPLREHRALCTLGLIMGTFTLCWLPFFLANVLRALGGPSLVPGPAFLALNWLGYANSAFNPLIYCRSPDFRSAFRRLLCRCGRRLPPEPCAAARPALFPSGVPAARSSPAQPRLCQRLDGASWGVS

INSULIN HUMAN
Not Active: IC50 [1] | Ki [1] | IC50 [2] | Ki [2] | IC50 [3] | Ki [3] | IC50 [4] | Ki [4] | IC50 [5] | Ki [5] | IC50 [6] | Ki [6]

POLYVINYL ALCOHOL
Not Active: IC50 [1] | Ki [1] | IC50 [2] | Ki [2] | IC50 [3] | Ki [3] | IC50 [4] | Ki [4] | IC50 [5] | Ki [5] | IC50 [6] | Ki [6]
